Test results reported in US20240239792A1, “MODULATORS OF BCL-2 OR BCL-2/BCL-XL AND USES THEREOF” (APPICINE THERAPEUTICS (HK) LIMITED, priority 2021, published 2024).

Key:
BCL-XL = molecular target: T1, BCL-XL (Homo sapiens, UniProt Q07817); experiment: HTRF BCL-XL/BAK assay (Cisbio); type: binding; settings: recombinant human Tag1-BCL-XL 2 nM, Tag2-BAK 5 nM
T1 construct: purchased Cisbio 63ADK000CB04PEG
Description: (§1) Then the pre-mixed anti-Tag1-Eu^3+ and anti-tag2-XL665 were added to the plate and further incubated at room temperature for another 2 hours. The signals ([…]) were read on Envision 2104 instrument. The IC50 for each compound was derived from fitting the signal of 665/615 nM to the increasing compound concentration.
(§2) Using the above assays, the following compounds were tested.

BCL-2 = molecular target: T2, BCL-2 (Homo sapiens, UniProt P10415); experiment: HTRF BCL-2/BAK assay (Cisbio); type: binding; settings: recombinant human Tag1-BCL-2 2 nM, Tag2-BAK 10 nM
T2 construct: purchased Cisbio 63ADK000CB01PEG
Description: as §1, §2

DOHH2 cells = experiment: CellTiter-Glo cell proliferation assay, DOHH2 cells; type: cell-based; settings: Homo sapiens, DOHH-2, 72 hours
Method in brief: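 DOHH2 cells seeded in DMEM + 10% FBS, exposed to serially diluted compound for 72 h at 37 °C, 5% CO2. Viability read by CellTiter-Glo luminescence; GI50 calculated.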

T2 sequence (P10415 whole entry): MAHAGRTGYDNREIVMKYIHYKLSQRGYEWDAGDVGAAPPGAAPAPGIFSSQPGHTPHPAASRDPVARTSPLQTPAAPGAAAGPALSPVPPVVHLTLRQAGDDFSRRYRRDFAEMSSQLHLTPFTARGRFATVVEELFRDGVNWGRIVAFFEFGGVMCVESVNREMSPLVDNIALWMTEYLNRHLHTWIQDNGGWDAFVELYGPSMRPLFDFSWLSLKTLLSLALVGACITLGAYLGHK
T1 sequence (Q07817 whole entry): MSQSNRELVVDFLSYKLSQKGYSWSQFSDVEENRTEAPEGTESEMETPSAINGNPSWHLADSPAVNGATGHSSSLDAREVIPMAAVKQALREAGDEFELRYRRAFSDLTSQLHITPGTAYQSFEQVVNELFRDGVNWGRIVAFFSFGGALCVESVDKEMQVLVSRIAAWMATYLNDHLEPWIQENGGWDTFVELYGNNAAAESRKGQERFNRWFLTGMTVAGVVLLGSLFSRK

IC50 (BCL-XL) [nM] | IC50 (BCL-2) [nM] | Compound | GI50 (DOHH2 cells) [nM]
200 to 2000 | 20 to 200 | O=C(NS(=O)(=O)c1ccc(NC[C@@H]2CO[C@@H]3OCC[C@H]23)c([N+](=O)[O-])c1)c1ccc(N2CCN([C@@H]3CCCCc4c(Br)cc(F)cc43)CC2)cc1Oc1cnc2[nH]ccc2c1 (relative stereo) [Compound 81, 2-((1H-pyrrolo[2,3-b]pyridin-5-yl)oxy)-4-(4-((R)-1-bromo-3-fluoro-6,7,8,9-tetrahydro-5H-benzo[7]annulen-5-yl)piperazin-1-yl)-N-((4-((((3R,3aR,6aS)-hexahydrofuro[2,3-b]furan-3-yl)methyl)amino)-3-nitrophenyl)sulfonyl)benzamide] | 500 to 5000
200 to 2000 | < 20 | O=C(NS(=O)(=O)c1ccc(NC[C@H]2CO[C@H]3OCC[C@@H]23)c([N+](=O)[O-])c1)c1ccc(N2CCN([C@@H]3CCCCc4c(Br)cc(F)cc43)CC2)cc1Oc1cnc2[nH]ccc2c1 (relative stereo) [Compound 82, 2-((1H-pyrrolo[2,3-b]pyridin-5-yl)oxy)-4-(4-((R)-1-bromo-3-fluoro-6,7,8,9-tetrahydro-5H-benzo[7]annulen-5-yl)piperazin-1-yl)-N-((4-((((3S,3aS,6aR)-hexahydrofuro[2,3-b]furan-3-yl)methyl)amino)-3-nitrophenyl)sulfonyl)benzamide] | 500 to 5000
200 to 2000 | 20 to 200 | O=C(NS(=O)(=O)c1cccc([N+](=O)[O-])c1)c1ccc(N2CCN(C3CCCCc4ccccc43)CC2)cc1Oc1cnc2[nH]ccc2c1 (stereo not drawn) [Compound 5, 2-((1H-pyrrolo[2,3-b]pyridin-5-yl)oxy)-N-((3-nitrophenyl)sulfonyl)-4-(4-(6,7,8,9-tetrahydro-5H-benzo[7]annulen-5-yl)piperazin-1-yl)benzamide] | 500 to 5000
> 2000 | 20 to 200 | O=C(NS(=O)(=O)c1ccc(NCC2CCOCC2)c([N+](=O)[O-])c1)c1ccc(N2CCN(C3COCc4ccccc43)CC2)cc1Oc1cnc2[nH]ccc2c1 (stereo not drawn) [Compound 12, 2-((1H-pyrrolo[2,3-b]pyridin-5-yl)oxy)-4-(4-(isochroman-4-yl)piperazin-1-yl)-N-((3-nitro-4-(((tetrahydro-2H-pyran-4-yl)methyl)amino)phenyl)sulfonyl)benzamide] | 500 to 5000
200 to 2000 | 20 to 200 | O=C(NS(=O)(=O)c1cccc([N+](=O)[O-])c1)c1ccc(N2CCN(C3CCCc4cccc(-c5ccc(Cl)cc5)c43)CC2)cc1Oc1cnc2[nH]ccc2c1 (stereo not drawn) [Compound 13, 2-((1H-pyrrolo[2,3-b]pyridin-5-yl)oxy)-4-(4-(8-(4-chlorophenyl)-1,2,3,4-tetrahydronaphthalen-1-yl)piperazin-1-yl)-N-((3-nitrophenyl)sulfonyl)benzamide] | 500 to 5000
200 to 2000 | < 20 | O=C(NS(=O)(=O)c1ccc(NCC2CCOCC2)c([N+](=O)[O-])c1)c1ccc(N2CCN(C3CCCc4cccc(-c5ccc(Cl)cc5)c43)CC2)cc1Oc1cnc2[nH]ccc2c1 (stereo not drawn) [Compound 16, 2-((1H-pyrrolo[2,3-b]pyridin-5-yl)oxy)-4-(4-(8-(4-chlorophenyl)-1,2,3,4-tetrahydronaphthalen-1-yl)piperazin-1-yl)-N-((3-nitro-4-(((tetrahydro-2H-pyran-4-yl)methyl)amino)phenyl)sulfonyl)benzamide] | 500 to 5000
20 to 200 | < 20 | O=C(NS(=O)(=O)c1ccc(NCC2CCOCC2)c([N+](=O)[O-])c1)c1ccc(N2CCN(C3CCCCc4c(Br)cccc43)CC2)cc1Oc1cnc2[nH]ccc2c1 (stereo not drawn) [Compound 18, 2-((1H-pyrrolo[2,3-b]pyridin-5-yl)oxy)-4-(4-(1-bromo-6,7,8,9-tetrahydro-5H-benzo[7]annulen-5-yl)piperazin-1-yl)-N-((3-nitro-4-(((tetrahydro-2H-pyran-4-yl)methyl)amino)phenyl)sulfonyl)benzamide] | < 50
> 2000 | < 20 | O=C(NS(=O)(=O)c1ccc(NCC2CCOCC2)c([N+](=O)[O-])c1)c1ccc(N2CCN(C3CCCCc4c(-c5ccccc5)cccc43)CC2)cc1Oc1cnc2[nH]ccc2c1 (stereo not drawn) [Compound 19, 2-((1H-pyrrolo[2,3-b]pyridin-5-yl)oxy)-N-((3-nitro-4-(((tetrahydro-2H-pyran-4-yl)methyl)amino)phenyl)sulfonyl)-4-(4-(1-phenyl-6,7,8,9-tetrahydro-5H-benzo[7]annulen-5-yl)piperazin-1-yl)benzamide] | 500 to 5000
200 to 2000 | < 20 | Cc1cccc2c1CCCCC2N1CCN(c2ccc(C(=O)NS(=O)(=O)c3ccc(NCC4CCOCC4)c([N+](=O)[O-])c3)c(Oc3cnc4[nH]ccc4c3)c2)CC1 (stereo not drawn) [Compound 20, 2-((1H-pyrrolo[2,3-b]pyridin-5-yl)oxy)-4-(4-(1-methyl-6,7,8,9-tetrahydro-5H-benzo[7]annulen-5-yl)piperazin-1-yl)-N-((3-nitro-4-(((tetrahydro-2H-pyran-4-yl)methyl)amino)phenyl)sulfonyl)benzamide] | 50 to 500
> 2000 | < 20 | O=C(NS(=O)(=O)c1ccc(NCC2CCOCC2)c([N+](=O)[O-])c1)c1ccc(N2CCN(C3CCCCc4ccc(Br)cc43)CC2)cc1Oc1cnc2[nH]ccc2c1 (stereo not drawn) [Compound 21, 2-((1H-pyrrolo[2,3-b]pyridin-5-yl)oxy)-4-(4-(3-bromo-6,7,8,9-tetrahydro-5H-benzo[7]annulen-5-yl)piperazin-1-yl)-N-((3-nitro-4-(((tetrahydro-2H-pyran-4-yl)methyl)amino)phenyl)sulfonyl)benzamide] | 50 to 500
200 to 2000 | 20 to 200 | O=C(NS(=O)(=O)c1ccc(NCC2CCOCC2)c([N+](=O)[O-])c1)c1ccc(N2CCN(C3CCCCc4cc(Br)ccc43)CC2)cc1Oc1cnc2[nH]ccc2c1 (stereo not drawn) [Compound 23, 2-((1H-pyrrolo[2,3-b]pyridin-5-yl)oxy)-4-(4-(2-bromo-6,7,8,9-tetrahydro-5H-benzo[7]annulen-5-yl)piperazin-1-yl)-N-((3-nitro-4-(((tetrahydro-2H-pyran-4-yl)methyl)amino)phenyl)sulfonyl)benzamide] | 500 to 5000
200 to 2000 | 20 to 200 | O=C(NS(=O)(=O)c1ccc(NCC2CCOCC2)c([N+](=O)[O-])c1)c1ccc(N2CCN(C3CCCCc4cc(Cl)ccc43)CC2)cc1Oc1cnc2[nH]ccc2c1 (stereo not drawn) [Compound 25, 2-((1H-pyrrolo[2,3-b]pyridin-5-yl)oxy)-4-(4-(2-chloro-6,7,8,9-tetrahydro-5H-benzo[7]annulen-5-yl)piperazin-1-yl)-N-((3-nitro-4-(((tetrahydro-2H-pyran-4-yl)methyl)amino)phenyl)sulfonyl)benzamide] | 50 to 500
> 2000 | < 20 | O=C(NS(=O)(=O)c1ccc(NCC2CCOCC2)c([N+](=O)[O-])c1)c1ccc(N2CCN(C3CCCCc4ccc(Cl)cc43)CC2)cc1Oc1cnc2[nH]ccc2c1 (stereo not drawn) [Compound 26, 2-((1H-pyrrolo[2,3-b]pyridin-5-yl)oxy)-4-(4-(3-chloro-6,7,8,9-tetrahydro-5H-benzo[7]annulen-5-yl)piperazin-1-yl)-N-((3-nitro-4-(((tetrahydro-2H-pyran-4-yl)methyl)amino)phenyl)sulfonyl)benzamide] | 50 to 500
> 2000 | 20 to 200 | O=C1CCC(N2CCN(c3ccc(C(=O)NS(=O)(=O)c4ccc(NCC5CCOCC5)c([N+](=O)[O-])c4)c(Oc4cnc5[nH]ccc5c4)c3)CC2)c2ccccc2N1 (stereo not drawn) [Compound 28, 2-((1H-pyrrolo[2,3-b]pyridin-5-yl)oxy)-N-((3-nitro-4-(((tetrahydro-2H-pyran-4-yl)methyl)amino)phenyl)sulfonyl)-4-(4-(2-oxo-2,3,4,5-tetrahydro-1H-benzo[b]azepin-5-yl)piperazin-1-yl)benzamide] | > 5000
< 20 | < 20 | CN1CCC(CNc2ccc(S(=O)(=O)NC(=O)c3ccc(N4CCN(C5CCCCc6c(Cl)cccc65)CC4)cc3Oc3cnc4[nH]ccc4c3)cc2[N+](=O)[O-])CC1 (stereo not drawn) [Compound 29, 2-((1H-pyrrolo[2,3-b]pyridin-5-yl)oxy)-4-(4-(1-chloro-6,7,8,9-tetrahydro-5H-benzo[7]annulen-5-yl)piperazin-1-yl)-N-((4-(((1-methylpiperidin-4-yl)methyl)amino)-3-nitrophenyl)sulfonyl)benzamide] | < 50
200 to 2000 | < 20 | O=C(NS(=O)(=O)c1ccc(NCC2CCOCC2)c([N+](=O)[O-])c1)c1ccc(N2CCN(C3CCCCc4ccc([N+](=O)[O-])cc43)CC2)cc1Oc1cnc2[nH]ccc2c1 (stereo not drawn) [Compound 30, 2-((1H-pyrrolo[2,3-b]pyridin-5-yl)oxy)-N-((3-nitro-4-(((tetrahydro-2H-pyran-4-yl)methyl)amino)phenyl)sulfonyl)-4-(4-(3-nitro-6,7,8,9-tetrahydro-5H-benzo[7]annulen-5-yl)piperazin-1-yl)benzamide] | 500 to 5000
< 20 | < 20 | CN1CCN(CCNc2ccc(S(=O)(=O)NC(=O)c3ccc(N4CCN(C5CCCCc6c(Cl)cccc65)CC4)cc3Oc3cnc4[nH]ccc4c3)cc2[N+](=O)[O-])CC1 (stereo not drawn) [Compound 32, 2-((1H-pyrrolo[2,3-b]pyridin-5-yl)oxy)-4-(4-(1-chloro-6,7,8,9-tetrahydro-5H-benzo[7]annulen-5-yl)piperazin-1-yl)-N-((4-((2-(4-methylpiperazin-1-yl)ethyl)amino)-3-nitrophenyl)sulfonyl)benzamide] | < 50
